Reference: PubChem BioAssay (NCI)
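Each compound was tested at five concentrations against cells in 96-well plates for 48 hours. GI50 marks 50% less growth. The concentration for full growth arrest is given as TGI.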

System: MDA-MB-468 breast
Assay: NCI anticancer screen, dose series, 48 h

SMILES | GI50 | TGI
Cc1ccc(C(=O)c2oc3ccc4c(C)cc(=O)oc4c3c2C)cc1 | 12100 nM | > 100000 nM
CC(C)c1ccc(Cc2cnc(NC(=O)c3cc(Br)cs3)s2)cc1 | 1300 nM | 8670 nM
CC1=CC[C@@H]2CC[C@]3(C)[C@H](CC[C@@H]4[C@@]5(C)CCCNC(C)(C)[C@@H]5CC[C@]43C)[C@H]2[C@@H]1C | 1680 nM | 3300 nM
Nc1c(C(=O)c2ccccc2)sc2nc(-c3cccs3)ccc12 | 200 nM | 910 nM
O=C(Nc1cccc(C(F)(F)F)c1)c1cc(-c2ccc(F)cc2F)ccc1O | 2220 nM | 6840 nM
COc1ccc(/C=C/c2cc(OC)c(OC)c(OC)c2)cc1NC(=O)/C=C/c1ccc(F)cc1 | 1780 nM | > 37500 nM
CC1=CSC2=NC(c3ccc(Cl)c(Cl)c3)=CC(c3ccc(Cl)cc3)N12 (stereo not drawn) | > 100000 nM | > 100000 nM
C#C[C@]1(O)CC[C@H]2[C@@H]3CC=C4c5sc(Nc6cc(Cl)ccn6)nc5CC[C@]4(C)[C@H]3CC[C@@]21C | 2190 nM | 6610 nM
COC(=O)CCC/C=C\C[C@H]1C=CC(=O)/C1=C/C[C@@H](O)CCc1cccc(C(F)(F)F)c1 | 2010 nM | 5230 nM
CCOC(=O)[C@@H](C)C[C@H](Cc1ccccc1)NC(=O)c1csc([C@@H](C[C@H](C(C)C)N(C)C(=O)[C@@H](NC(=O)[C@H]2C[C@H](O[Si](C)(C)C(C)(C)C)CCN2C)C(C)C)OC(C)=O)n1 | 75.4 nM | 5450 nM
Clc1nc(Oc2ccccc2)nc(-c2cn(-c3ccccc3)c3ccccc23)n1 | 2860 nM | 9940 nM
N#CCc1nc(C#N)c(N)o1 | > 100000 nM | > 100000 nM
Oc1ccc(Br)cc1Sc1cc(Br)ccc1O | 4090 nM | 20800 nM
O=C(Nc1ccc(Cl)cc1)Nc1ccc(Cl)c(Cl)c1 | 2610 nM | 11300 nM
COc1cc2nc(-c3ccc(C(F)(F)F)cc3)cc(OCCCN3CCOCC3)c2cc1OC | 1240 nM | 5710 nM
COc1cccc(-c2nc3sccn3c2-c2ccnc(NCCNC(=O)Nc3cccc(C(F)(F)F)c3)n2)c1 | 2630 nM | 10400 nM
COc1cc(-c2cnn(C)c2)ccc1Nc1ncc2ccnc(N[C@@H](C)C(C)(C)C)c2n1 | > 74700 nM | > 100000 nM

SMILES | GI50 | TGI
COc1c/c(=C2/C=c3ccccc3=N2)[nH]/c1=C/c1[nH]c(C)cc1C | 311 nM | 1940 nM
Cc1cc(/C=C2\SC(=Nc3ccccc3)N(C3CCCC3)C2=O)c(C)n1-c1ccc(Cl)cc1 | 48000 nM | > 100000 nM
COc1cc(OC)c(/C=C/c2ccc3ccccc3[n+]2C)c(OC)c1 | 161 nM | 763 nM
CN1CCN(Cc2ccc(NC(=O)c3cncc(C#Cc4cnc(N)c5ccc(F)cc45)c3)cc2C(F)(F)F)CC1 | 1770 nM | 6670 nM
C=CC(=O)N1CCCC(n2nc(-c3ccc(Oc4ccccc4)cc3)c3c(N)ncnc32)C1 (stereo not drawn) | 31.9 nM | 600 nM
CC[N+](CC)=c1ccc2nc3c(cc(N)c4ccccc43)oc-2c1 | 21.9 nM | 132 nM
COc1ccc2c(c1)sc1nc(-c3ccccc3)c(-c3ccsc3)n12 | 1980 nM | 5430 nM
CC[N+](CCCCCCCCCC[N+](CC)(c1ccccn1)c1ccccn1)(c1ccccn1)c1ccccn1 | 206 nM | 1430 nM
CCOc1ccc(/C=C/C(=O)c2ccccc2)cc1 | 17300 nM | 34100 nM
O=[N+]([O-])c1ccc2[nH]cc(-c3c4ccsc4cc4[nH]c5ccc([N+](=O)[O-])cc5c34)c2c1 | 805 nM | 2470 nM
COc1cc(/C=C/c2cc(C(F)(F)F)[nH]c(=O)n2)ccc1OCc1ccccc1F | 2970 nM | 14400 nM
CCCCNc1nc(NC(C)(C)C)nc(NC(C)(C)C)n1 | 1490 nM | 34800 nM
CC1(C)C=CC[C@]2(C)[C@H]3CC[C@@H]4[C@H]5[C@H](C(=O)/C=C/c6cccnc6)CC[C@]5(CO)CC[C@@]4(C)[C@]3(C)CC[C@@H]12 | 1340 nM | 2880 nM
C=CCn1c(C)nc2cc(Nc3nc(Nc4ccc5nc(C)n(CC=C)c5c4)c4ccccc4n3)ccc21 | 203 nM | 521 nM
CCCCCCC/C=C/[C@H]1O[C@]23C(=O)C[C@@]4(C[C@@H](OC5OC(CO)C(O)C(O)C5O)C[C@@H]4[C@H]2C=C1C)OC3=O (stereo partly drawn) | 4580 nM | 13500 nM
COc1cc(-c2nc3ccc(C)cc3[nH]2)ccc1OCC(=O)N=Nc1c(O)[nH]c2ccccc12 | 1750 nM | 3340 nM
O=C(CN1CCOCC1)NNc1ncnc2ccccc12 | 3650 nM | 15600 nM
